These results are taken from article PMC9259545, “Impact of poly-arginine peptides R18D and R18 on alteplase and tenecteplase thrombolysis in vitro, and neuroprotective stability to proteolysis” (Journal of Thrombosis and Thrombolysis, 2022).

One experiment addresses T1, tPA (Homo sapiens, UniProt P00750).
T1 construct: purchased Boehringer Ingelheim, Germany 10 mg vial
Briefly: Halo clot thrombolysis assay, tPA thrombolysis of whole blood clots. The class given is biochemical. The conditions noted are these: tPA 5 nM, 27.5% human plasma; for Increase in tPA lag time / Increase in tPA thrombolysis maximal activity: concurrent study, 37 °C. The protocol:
(§1) We utilised a high throughput 96-well plate thrombolysis assay (“halo clot assay”) based on the procedure developed by Bonnard et al.. To reduce assay components the halo thrombus formation procedure was modified by replacing the original thrombotic mixture consisting of recombinant tissue factor and synthetic phospholipids reconstituted in 30 mM calcium, with thrombin, and reducing the pro-thrombotic volume (i.e., thrombin) from 5 to 3 µL and blood volume from 25 to 12 µL. Another modification to simplify clot formation consisted of adding the thrombin (3 µL; 500 nM in saline) to one side of the well and 12 µL of blood to the opposite side of well, before using a heat stretched Pasteur pipette with sealed end to mix the two liquids together using 4 to 5 circular motions around the edge of the well (halo clot). The original methodology involved adding the 5 μL of the clotting mixture to the edge of the well, and then using a micropipette to slowly release the 25 μL of blood to the edge of the well while at the same time maintaining a circular motion. Plates were incubated in a humidified 37 °C incubator for 1 h before use in the thrombolysis assay.
(§2) The thrombolysis assay involved adding 30 µL of Tris buffer (50 mM Tris–HCl, 100 mM NaCl, pH 7.4) with or without peptide followed by 55 µL Tris buffer containing tPA or TNK (5 nM final concentration) and 50% human plasma (final plasma concentration during thrombolysis 27.5%). The final concentration of peptide during thrombolysis ranged from 0.25 to 16 µM (note: an intravenous dose of R18D at 350 nmol/kg, which is likely to be neuroprotective achieves a Cmax of 0.7–0.9 µM in healthy male and female rats; unpublished observation). […] Following the addition of tPA or TNK into the wells, clot lysis was monitored over a 1-h period at 37 °C using a plate reader (Cytation5, BioTek, USA) by measuring absorbance at 510 nm every 1 min immediately after orbital shaking (205 rpm for 5 s). Controls consisted of wells with no thrombin (100% clot lysis; L100%) and wells with no tPA or TNK (0% clot lysis; L0%). At the 1-h time point, the percentage of thrombolysis (%T) in tPA or TNK treated samples (LTX) was calculated by transforming absorbance values based on the formula: % T = (LTX) − (L0%)/(L100%) − (L0%) × 100. In addition, during the 1-h period of clot lysis lag time and maximal activity (also known as maximum velocity or Vmax) of the thrombolysis reaction were calculated. The lag time is defined as the time interval between the first absorbance reading (time = 0) and the line of maximum slope of the thrombolysis reaction. The maximal activity is calculated from the maximum slope over the time course of the assay and reflects the capacity of an enzyme to catalyse a reaction (i.e., thrombolysis), with higher values representing higher catalytic activity (i.e., tPA/TNK induced plasmin thrombolysis).
(§3) For each thrombolysis assay, replicates for control wells (L0% and L100%) and tPA or TNK only treated wells consisted of n = 4–8. Replicates for tPA or TNK and peptide treated wells consisted of n = 4. For data analysis and graphical representations of the results, data from three independent thrombolytic assays were pooled. Studies consisted of R18D, R18 and NA-1 examined at the 0.5, 1, 2, 4, 8 or 16 µM concentrations performed concurrently on the same 96-well plate, in respective order. In addition, since R18D is known to be resistant to plasmin degradation and appeared to have the most impact on tPA or TNK thrombolysis, a separate set of three independent assays were performed for this peptide alone at concentrations of 0.25, 0.5, 1, 2, 4, 8 or 16 µM. Furthermore, the second dose study with R18D provided the opportunity to include a lower concentration (0.25 µM) of the peptide and to provide comparative data when only one peptide was examined in the thrombolysis assay per 96-well plate as opposed to examining the three peptides concurrently on the same plate. […]

Another experiment concerns the target T2, TNK (Homo sapiens, UniProt P00750, H332A/K331A/N152Q/R333A/R334A/T138N).
T2 construct: purchased Boehringer Ingelheim 50 mg vial
Briefly: Halo clot thrombolysis assay, TNK thrombolysis of whole blood clots. The class given is biochemical. The conditions noted are these: concurrent study, 0.5-16 µM peptide, TNK 5 nM, 27.5% human plasma. The protocol:
as §1, §2, §3

Experiment [1] deals with tPA or TNK. It counts as biochemical, human. The method, then: as §1, §2
For each thrombolysis assay, replicates for control wells (L0% and L100%) and tPA or TNK only treated wells consisted of n = 4–8. Replicates for tPA or TNK and peptide treated wells consisted of n = 4. For data analysis and graphical representations of the results, data from three independent thrombolytic assays were pooled. Studies consisted of R18D, R18 and NA-1 examined at the 0.5, 1, 2, 4, 8 or 16 µM concentrations performed concurrently on the same 96-well plate, in respective order. […]

Experiment [2] relates to tPA or TNK. The conditions noted are these: cited from earlier work. An excerpt: Given the potential future application of the R18D, R18 and NA-1 peptides as ischaemic stroke neurotherapeutics, it is important to establish if they interfere with current and future standard of care treatments, namely alteplase (tPA; recombinant tissue plasminogen activator) and tenecteplase (TNK; a modified version of tPA) thrombolysis, which are routinely administered prior to thrombectomy. Similarly, it is also important to determine whether tPA or TNK may cause proteolytic degradation of the peptides directly or through the activation of plasminogen to plasmin, thereby reducing their pot ...

Experiment [3] has as its system Rat primary cortical cultures. More on the design: method as in PMID 25669902. The conditions noted are these: cited from earlier work.
Experimental: To assess peptide proteolytic stability, R18 and R18D neuroprotective efficacy after incubation with tPA, TNK or trypsin was examined in the glutamic acid excitotoxicity model. Peptides were added to culture wells (96-well plate format) 5 min prior to glutamic acid exposure by removing media and adding 50 µL of media containing R18 or R18D at a 2 µM concentration. To induce excitotoxicity, 50 µL of Minimal Essential Media (Life Technologies)/2% B27 (MEM/B27) containing glutamic acid (200 µM: final concentration 100 µM; L-glutamic acid. L-glutamic acid was prepared as a 10,000 µM stock in water ...
The subject of experiment [4] is patients undergoing thrombectomy. The conditions noted are these: ESCAPE-NA-1 trial, subgroup analysis; cited from earlier work. An excerpt:
The cationic arginine-rich peptides (CARPs) poly-arginine-18 (R18; 18-mer of L-enantiomer arginine; net charge + 18), its D-enantiomer (R18D) and NA-1 (also known as nerinetide or TAT-NR2B9c; net charge + 7) represent emerging neuroprotective therapies for the acute treatment of ischaemic stroke, especially prior to thrombolysis and endovascular thrombectomy.

No end group written: not given here.

T2 sequence (P00750 36-562 T138N/N152Q/K331A/H332A/R333A/R334A): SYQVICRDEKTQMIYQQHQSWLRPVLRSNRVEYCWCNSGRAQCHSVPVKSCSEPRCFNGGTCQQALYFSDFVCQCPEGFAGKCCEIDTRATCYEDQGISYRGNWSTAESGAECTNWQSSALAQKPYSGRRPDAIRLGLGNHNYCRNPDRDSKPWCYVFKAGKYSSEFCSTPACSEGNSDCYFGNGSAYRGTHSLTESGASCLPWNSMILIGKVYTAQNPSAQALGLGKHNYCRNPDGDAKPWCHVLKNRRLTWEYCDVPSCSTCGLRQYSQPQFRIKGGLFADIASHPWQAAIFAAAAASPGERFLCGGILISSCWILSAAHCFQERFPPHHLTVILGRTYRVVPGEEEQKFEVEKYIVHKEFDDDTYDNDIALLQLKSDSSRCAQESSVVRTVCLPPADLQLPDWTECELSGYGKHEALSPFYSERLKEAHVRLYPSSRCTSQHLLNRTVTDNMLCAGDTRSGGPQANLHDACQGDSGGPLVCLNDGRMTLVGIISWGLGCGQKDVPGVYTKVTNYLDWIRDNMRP
T1 sequence (P00750 36-562): as the sequence (P00750 36-562 T138N/N152Q/K331A/H332A/R333A/R334A) above, with N103T, Q117N, A296K, A297H, A298R, A299R counted along it

Regarding “YGRKKRRQRRRKLSSIESDV [NA-1, reference compound]”, the “Increase in tPA lag time” value is 5.4 min at tPA (peptide 1 µM) and 7.16 min on tPA (peptide 2 µM). For the same sequence, the “Increase in tPA thrombolysis maximal activity” value is recorded as 40.68% at tPA (peptide 2 µM), 45.1% at tPA (peptide 4 µM), 58.65% on tPA (peptide 8 µM) and 45.65% on tPA (peptide 16 µM). Also, the “Effect on percentage tPA thrombolysis at 1 h vs tPA control” value on tPA (three peptides concurrently on the same plate, 0.5-16 µM peptide, Tris pH 7.4, 37 °C, 1 h, absorbance 510 nm, three independent assays pooled, n = 4, Dunnett's test) is recorded as “did not significantly inhibit thrombolysis”. Moreover, the “Effect on TNK lag time vs TNK control” value at TNK is recorded as “did not significantly increase TNK lag time”. Moreover, the “Effect on TNK thrombolysis maximal activity vs TNK control” value at TNK is “did not significantly impact TNK thrombolysis maximal activity”. Moreover, on TNK (37 °C, 1 h), the “Effect on percentage TNK thrombolysis at 1 h vs TNK control” value is on record as “did not significantly inhibit TNK thrombolysis”. Besides, in the experiment with tPA or TNK [1] (range over peptide concentrations 0.25-16 µM and both thrombolytics, 1-h assay), the “Increase in lag time (time to the commencement of thrombolysis)” value fell in the range of 0 to 7.16 min. Also, the “Effect on maximal activity of the thrombolysis reaction” value in the experiment with tPA or TNK [1] (summary in abstract) is on record as “appeared to increase the maximal activity”. The “Interference with the thrombolytic activity of tPA or TNK” value in the experiment with tPA or TNK [2] is given as “does not interfere”. Besides, the “Neuroprotection in the glutamic acid excitotoxicity model” value in experiment [3] is on record as “no to little neuroprotection”. Also, the “Outcome of patients who received NA-1 but not alteplase compared with patients who received both NA-1 and alteplase” value in experiment [4] is “significantly better functional outcomes, reduced mortality and reduced infarct volume”.
